System: anti-chitosan polyclonal antibody (CTSpAb)
Assay: Competitive ELISA with 3-mer to 6-mer CTS oligosaccharide as competitive substance
Type: binding, fowl
Details: CTSpAb diluted 8,000-fold
Method: The Molecular Size of CTS which can be assayed by CTSpAb was determined through a competitive ELISA employing a 3-mer to 6-mer CTS oligosaccharide (product of Seikagaku Corporation) as a competitive substance.
To CTS, 1% (v/v) acetic acid was added so as to adjust the concentration to 2 μg/mL. The thus-prepared solution was added to a plate at 50 μL/well, and the plate was allowed to stand overnight at 4° C. The plate was washed twice with 9.57 mM PBS (pH: 7.5) at 300 μL/well, and then 25% BA/9.57 mM PBS (pH: 7.5) was added thereto at 200 μL/well. The plate was allowed to stand for 1 hour, to thereby fabricate CTS-immobilized plate. The plate was washed repeatedly four times with PBS-T at 300 μL/well. To the plate, a solution prepared by adding 10% BA/PBS-T to the CTS oligosaccharide so as to adjust the concentration to 0.00064 to 10 μg/mL, or 10% BA/PBS-T (CTS oligosaccharide-free) was added to the plate at 100 μL/well. Then, CTSpAb diluted 8,000-fold with 10% BA/PBS-T was added to the plate at 100 μL/well, and the plate was allowed to stand for 1 hour. The plate was washed repeatedly four times with PBS-T at 300 μL/well. Subsequently, a product of peroxidase-labeled anti-fowl IgY (IgG) (H+L) antibody 5,000-fold diluted with 10% BA/PBS-T was added to the plate at 100 μL/well, and the plate was allowed to stand for 1 hour. The plate was washed repeatedly four times with PBS-T at 300 μL/well, and then, TMB reagent was added to the plate at 100 μL/well, and the plate was allowed to stand for 30 minutes. Then, 1 N HCl was added to the plate at 100 μL/well. The absorbance of each well of the plate was measured by means of a well reader MP-96 at a measurement wavelength of 450 nm and a reference wavelength of 630 nm.
As is clear from Table 3, binding of CTSpAb to CTS on the plate was inhibited by 3- to 6-mer CTS oligosaccharide.

[1] = CTS oligosaccharide 0.00064 μg/mL
[2] = CTS oligosaccharide 0.0032 μg/mL
[3] = CTS oligosaccharide 0.016 μg/mL

SMILES | % Inhibition [1] [%] | % Inhibition [2] [%] | % Inhibition [3] [%] | % Inhibition (CTS oligosaccharide 0.08 μg/mL) [%] | % Inhibition (CTS oligosaccharide 0.4 μg/mL) [%] | % Inhibition (CTS oligosaccharide 2 μg/mL) [%] | % Inhibition (CTS oligosaccharide 10 μg/mL) [%]
N[C@H]1[C@H](O[C@H]2[C@H](O)[C@@H](N)[C@H](O[C@H]3[C@H](O)[C@@H](N)C(O)O[C@@H]3CO)O[C@@H]2CO)O[C@H](CO)[C@@H](O)[C@@H]1O (stereo partly drawn) [3-mer] | 6 | 9 | 11 | 16 | 24 | 32 | 44
N[C@H]1[C@H](O[C@H]2[C@H](O)[C@@H](N)[C@H](O[C@H]3[C@H](O)[C@@H](N)[C@H](O[C@H]4[C@H](O)[C@@H](N)[C@H](O[C@H]5[C@H](O)[C@@H](N)C(O)O[C@@H]5CO)O[C@@H]4CO)O[C@@H]3CO)O[C@@H]2CO)O[C@H](CO)[C@@H](O)[C@@H]1O (stereo partly drawn) [5-mer] | 28 | 42 | 55 | 65 | 69 | 70 | 70
N[C@H]1[C@H](O[C@H]2[C@H](O)[C@@H](N)[C@H](O[C@H]3[C@H](O)[C@@H](N)[C@H](O[C@H]4[C@H](O)[C@@H](N)[C@H](O[C@H]5[C@H](O)[C@@H](N)[C@H](O[C@H]6[C@H](O)[C@@H](N)C(O)O[C@@H]6CO)O[C@@H]5CO)O[C@@H]4CO)O[C@@H]3CO)O[C@@H]2CO)O[C@H](CO)[C@@H](O)[C@@H]1O (stereo partly drawn) [6-mer, chitosan hexamer] | 25 | 39 | 51 | 63 | 66 | 68 | 68
